Measured values taken from patent US20240180872A1, “METHODS AND COMPOUNDS OF CANNABIDIOL, MELATONIN AND AKBA FOR TREATING PANCREATIC CANCER” (priority 2021, published 2024).

System: pancreatic adenocarcinoma associated genes
Experiment: TaqMan Array gene expression in MIAPaCa-2, normalized for GAPDH
Assay type: cell-based, Human
Conditions: Mia-PACA-2, 24 hs, CBD 3.8, MLT 200, AKBA 7.5 micrograms/ml
Procedure: Total RNA from untreated or CBD, MLT, AKBA alone and in combination treated cell lines was extracted using Rneasy Mini kit (Qiagen, Milan, Italy). One microgram of total RNA from each sample was subjected to reverse transcription in a total volume of 20 μL using the High-Capacity cDNA Archive Kit (Applied Biosystem, Foster City, […], USA) according to the instructions. cDNAs were analyzed by qRT-PCR performed using an IQ5 Multicolor Real time PCR Detection system. Quantitative real-time gene expression was performed with the TaqMan® Array Human Pancreatic Adenocarcinoma 96-well Plate, containing 92 assays to pancreatic adenocarcinoma associated genes and 4 assays to candidate endogenous control genes, was purchased (Thermo Fisher, Grand Island, NY, USA) and used to evaluate the treatments in modulating PDAC-related genes (Table 1). Measurement of different housekeeping genes (GAPDH; HPRT1; GUSB) on the samples was used to normalize mRNA content. The gene expression levels of treated cell lines were expressed as relative fold compared with untreated or vehicle-treated cells.
To elucidate the molecular events induced by CBD, MLT and AKBA alone and in combination, 92 genes involved in PDAC progression and aggressiveness were evaluated by Taqman Array. Both cell lines were treated with CBD, MLT and AKBA alone and in combination, and the molecular pathways of PDAC associated gene were evaluated.
Target mRNA levels were normalized for GAPDH expression.

[1] = normalized for GAPDH, Akt pathways
[2] = normalized for GAPDH, Akt-pathways
[3] = normalized for GAPDH, DNA repair
[4] = normalized for GAPDH, NfkB pathways
[5] = normalized for GAPDH, Ras pathways
[6] = normalized for GAPDH, TGF patways
[7] = normalized for GAPDH, TGF-patways
[8] = normalized for GAPDH, angiogenesis
[9] = normalized for GAPDH, apoptosis
[10] = normalized for GAPDH, cell cycle
[11] = normalized for GAPDH, inflammation
[12] = normalized for GAPDH, proliferation

COc1ccc2[nH]cc(CCNC(C)=O)c2c1 [MLT, N-[2-(5-methoxy-1H-indol-3-yl)ethyl]acetamide]
GAPDH relative expression (GAPDH is the normalizer): 1.00 | PK3CB relative expression [1]: 0.15 | PK3CD relative expression [1]: 0.07 | AKT1 relative expression [2]: 0.09 | AKT2 relative expression [2]: 0.55 | AKT3 relative expression [2]: 0.00 | IGF1 relative expression [2]: 0.00 | PK3CA relative expression [2]: 0.00 | PK3R1 relative expression [2]: 0.03 | BRCA2 relative expression [3]: 0.40 | MDM2 relative expression [3]: 0.00 | TP53 relative expression [3]: 0.26 | HSP90AA1 relative expression (normalized for GAPDH, Heat sock protein): 0.00 | NFKB1 relative expression [4]: 0.11 | NFKB2 relative expression [4]: 0.02 | REL relative expression [4]: 0.09 | RELA relative expression [4]: 0.00 | RELB relative expression [4]: 0.06 | RHOA relative expression [4]: 0.07 | RHOB relative expression [4]: 0.03 | BRAF relative expression [5]: 0.16 | E2F1 relative expression [5]: 0.16 | E2F3 relative expression [5]: 0.09 | E2F4 relative expression [5]: 0.19 | EGF relative expression [5]: 0.00 | EGFR relative expression [5]: 0.19 | ELK1 relative expression [5]: 0.11 | ERBB2 relative expression [5]: 0.05 | GRB2 relative expression [5]: 0.28 | HBEGF relative expression [5]: 0.46 | KRAS relative expression [5]: 0.01 | MAP2K1 relative expression [5]: 0.04 | MAP2K2 relative expression [5]: 0.09 | MAPK1 relative expression [5]: 0.03 | MAPK3 relative expression [5]: 0.01 | RAF1 relative expression [5]: 0.07 | RB1 relative expression [5]: 0.03 | SOS1 relative expression [5]: 0.07 | TGFB2 relative expression [6]: 0.00 | TGFB3 relative expression [6]: 0.00 | TGFBR1 relative expression [6]: 0.00 | SMAD2 relative expression [7]: 0.21 | SMAD3 relative expression [7]: 0.24 | SMAD4 relative expression [7]: 0.09 | TGFA relative expression [7]: 0.20 | TGFB1 relative expression [7]: 0.04 | TGFBR2 relative expression [7]: 0.00 | FIGF relative expression [8]: 0.14 | VEGFA relative expression [8]: 0.02 | VEGFB relative expression [8]: 0.04 | VEGFC relative expression [8]: 0.00 | BCL2L1 relative expression [9]: 0.26 | BCL2 relative expression [9]: 0.00 | BIRC5 relative expression [9]: 0.16 | CCNA2 relative expression [10]: 0.09 | CCNB1 relative expression [10]: 0.40 | CCND1 relative expression [10]: 0.12 | CCND2 relative expression [10]: 0.00 | CCNE1 relative expression [10]: 0.13 | CCNE2 relative expression [10]: 0.09 | CDC42 relative expression [10]: 0.00 | CDK2 relative expression [10]: 0.09 | CDK4 relative expression [10]: 0.20 | CDKN1A relative expression [10]: 0.08 | CDKN1B relative expression [10]: 0.11 | CDKN2A relative expression [10]: 0.20 | CDKN2B relative expression [10]: 1.98 | CDKN2C relative expression [10]: 0.17 | CDKN2D relative expression [10]: 0.05 | IL6 relative expression [11]: 0.00 | JAK1 relative expression [11]: 0.02 | JAK2 relative expression [11]: 0.02 | JAK3 relative expression [11]: 0.00 | STAT1 relative expression [11]: 0.13 | STAT2 relative expression [11]: 0.00 | STAT3 relative expression [11]: 0.08 | STAT6 relative expression [11]: 0.01 | STATSB relative expression [11]: 0.49 | MMP1 relative expression (normalized for GAPDH, invasion): 0.08 | MMP2 relative expression (normalized for GAPDH, invasion): 0.00 | MMP3 relative expression (normalized for GAPDH, invasion): 0.01 | MMP7 relative expression (normalized for GAPDH, invasion): 0.01 | MMP9 relative expression (normalized for GAPDH, invasion): 0.04 | PTGS2 relative expression (normalized for GAPDH, invasion): 0.03 | RAC1 relative expression (normalized for GAPDH, invasion): 0.00 | RAC2 relative expression (normalized for GAPDH, invasion): 0.01 | KIT relative expression [12]: 0.01 | NOTCH1 relative expression [12]: 0.38 | SRC relative expression [12]: 0.07
